Source: article PMC11484942, “Rumicidins are a family of mammalian host-defense peptides plugging the 70S ribosome exit tunnel” (Nature Communications, 2024)

Tested on: E. coli ATCC 25922
Assay: Systemic septicemia infection mouse model
Format: in vivo, BALB/c mice
Details: 10 mg/kg IP once (1 h post-infection); n = 5
Protocol: All animal studies were performed at the State Research Center for Applied Microbiology & Biotechnology (SRCAMB) in Obolensk (Russia), approved by the Institutional Bioethics Committee of the SRCAMB (Animal Research Protocol #VP-2022/1) and performed according to the Russian Federal rules and Directive 2010/63/EU of the European Parliament and of the Council. Experiments were performed with female eight- to ten-week-old BALB/c mice (“Andreevka” laboratory animal nursery FMBA, Russia). The animals were housed in groups of 5 in polycarbonate cages, and the following housing conditions were used: 12/12 h dark/light cycle, ambient temperature of 20 ÷ 22 °C, 50% humidity. Food and water were provided ad libitum. In vivo efficacy of rumicidins was tested in the mouse septicemia model induced by E. coli ATCC 25922. Mice were infected with 0.5 mL of bacterial suspension (1 × 10^6 CFU per animal) in saline supplemented with 2.5% mucin (w/v) via intraperitoneal (IP) injection. A total of 4 groups with 5 animals were used. […] The second group received saline (as a vehicle control) and administered IP once (1 h post-infection). Two other groups received rumicidin-1 or rumicidin-3 each administered IP three times (1, 4, and 8 h post-infection) at a dose of 10 mg/kg or of 5 mg/kg, respectively. Survival was monitored for 7 days. After that survived animals were euthanized by CO2 asphyxiation. […]

`O=C(O)c1cn(C2CC2)c2cc(N3CCNCC3)c(F)cc2c1=O` [Ciprofloxacin] was tested, and the survival was “survival of all mice”.
